According to US20190364896A1, “SYNERGISTIC WEED CONTROL FROM APPLICATIONS OF PYRIDINE CARBOXYLIC ACID HERBICIDES AND ALS INHIBITORS” (Dow AgroSciences LLC, priority 2014, published 2019):

Columns and labels:
Test in all cases: Postemergence herbicidal activity, greenhouse trial (visual injury 0-100%)
Format in all cases: in vivo
[1] = tested on: wild buckwheat (Polygonum convolvulus, POLCO)
Experimental: (§1) Seeds of the desired test plant species were planted in Sun Gro MetroMix® 306 planting mixture, which typically has a pH of 6.0 to 6.8 and an organic matter content of about 30 percent, in plastic pots with a surface area of 103.2 square centimeters (cm^2). […] The plants were grown for 7-36 days (d) in a greenhouse with an approximate 14-hour (h) photoperiod which was maintained at about 23° C. during the day and 22° C. during the night. Nutrients and water were added on a regular basis and supplemental lighting was provided with overhead metal halide 1000-Watt lamps as necessary. The plants were employed for testing when they reached the second or third true leaf stage.
(§2) Weighed amounts of technical or formulated material (emulsifiable concentrate (EC) or soluble concentrate (SL)) were dissolved in a volume of 97:3 volume per volume (v/v) acetone/dimethyl sulfoxide (DMSO) to stock solutions. […] The concentrated stock solutions were diluted with an aqueous mixture of 1.5% v/v of Agri-dex crop oil concentrate to provide the appropriate application rates. Compound requirements are based upon a 12 milliliter (mL) application volume at a rate of 187 liters per hectare (L/ha). Spray solutions of the experimental compound mixtures were prepared by adding the stock solutions to the appropriate amount of dilution solution to form a 12 mL spray solution in two-way combinations. Formulated compounds were applied to the plant material with an overhead Mandel track sprayer equipped with 8002E nozzles calibrated to deliver 187 L/ha over an application area of 0.503 square meters (m^2) at a spray height of 18 inches (43 centimeters (cm)) above average plant canopy. Control plants were sprayed in the same manner with the solvent blank. Application rates for component (a) are in g ae/ha, and application rates for component (b) are in g ai/ha.
(§3) The treated plants and control plants were placed in a greenhouse as described above and watered by sub-irrigation to prevent wash-off of the test compounds. After 20-22 d, the condition of the test plants as compared with that of the control plants was determined visually and scored on a scale of 0 to 100 percent where 0 corresponds to no injury and 100 corresponds to complete kill. Colby's equation was used to determine the herbicidal effects expected from the mixtures. […]
(§4) Weighed amounts of technical material were dissolved in a volume of 97:3 volume per volume (v/v) acetone/dimethyl sulfoxide (DMSO) to stock solutions. […] The concentrated stock solutions were diluted with an aqueous mixture of 1.5% v/v of Agri-dex crop oil concentrate to provide the appropriate application rates. Compound requirements are based upon a 12 milliliter (mL) application volume at a rate of 187 liters per hectare (L/ha).

[2] = tested on: thistle (Cirsium arvense, CIRAR); details: for pest or weed control: 4.375 g ai/ha
Experimental: as §1, §2, §3, §4

[3] = tested on: kochia (Kochia scoparia, KCHSC); details: for pest or weed control: 4.375 g ai/ha
Experimental: as §1, §2, §3, §4

[4] = tested on: chickweed (Stellaria media, STEME); details: for pest or weed control: 4.375 g ai/ha
Experimental: as §1, §2
(§5) The treated plants and control plants were placed in a greenhouse as described above and watered by sub-irrigation to prevent wash-off of the test compounds. After 20-22 d, the condition of the test plants as compared with that of the control plants was determined visually and scored on a scale of 0 to 100 percent where 0 corresponds to no injury and 100 corresponds to complete kill. The condition of the test plants was compared with that of the control plants as determined visually and scored on a scale of 0 to 100 percent, where 0 corresponds to no injury and 100 corresponds to complete kill. Colby's equation was used to determine the herbicidal effects expected from the mixtures.
(§6) Compound 1 was formulated as an EC and was combined with florasulam, cloransulam, diclosulam, flumetsulam, penoxsulam, or pyroxsulam. Compound 2 was formulated as an EC and was combined with florasulam or pyroxsulam. The mixtures were applied to winter wheat (TRZAW), common rice (ORYSA), maize (ZEAMX), and the phytotoxicity of the herbicidal compositions was measured. In addition, the efficacy of the herbicidal compositions on blackgrass (Alopecurus myosuroides, ALOMY), pigweed (Amaranthus retrollexus, AMARE), wild oat (Avena fatua, AVEFA), common lambsquarters (Chenopodium album L., CHEAL), thistle (Cirsium arvense CIRAR), nutsedge (Cyperus esculentus, CYPES), barnyardgrass (Echinochloa crus-galli, ECHCG), poinsettia (Euphorbia heterophylla, EPHHL), ivyleaf morning-glory (Ipomoea hederacea, IPOHE), kochia (Kochia scoparia, KCHSC), wild buckwheat (Polygonum convolvulus, POLCO), grain sorghum (Sorghum vulgare, SORVU), chickweed (Stellaria media, STEME), wild pansy (Viola tricolor, VIOTR), was evaluated.
as §4, with “(L/ha). […]” for “(L/ha).”

[5] = tested on: nutsedge (Cyperus esculentus, CYPES); details: Cyperus, post-emergence, read-out: % visual injury Obs; for pest or weed control: 4.375 g ai/ha
Experimental: as §1
as §2, with “technical” for “technical or formulated”, “material” for “material (emulsifiable concentrate (EC) or soluble concentrate (SL))”
as §3, §2

[6] = tested on: barnyardgrass (Echinochloa crus-galli, ECHCG); details: Echinochloa crus-galli, post-emergence, read-out: % visual injury Obs
Experimental: as §1, §2, §5, §6
as §4, with “(L/ha). […]” for “(L/ha).”

[7] = tested on: ivyleaf morning-glory (Ipomoea hederacea, IPOHE)
Experimental: as §1, §2, §5, §6
as §4, with “(L/ha). […]” for “(L/ha).”

[8] = tested on: pigweed (Amaranthus retroflexus, AMARE); details: for pest or weed control: 4.375 g ai/ha
Experimental: as §1, §2, §3, §4

[9] = tested on: common lambsquarters (Chenopodium album L., CHEAL); details: Chenopodium album, post-emergence, 4.375 g ai/ha; read-out: % visual injury Obs
Experimental: as §1, §2, §5, §6
as §4, with “(L/ha). […]” for “(L/ha).”

[10] = tested on: poinsettia (Euphorbia heterophylla, EPHHL); details: Euphorbia heterophylla, post-emergence; 4.375 g ai/ha; read-out: % visual injury Obs
Experimental: as §1
as §2, with “technical” for “technical or formulated”, “material” for “material (emulsifiable concentrate (EC) or soluble concentrate (SL))”
as §3, §2

[11] = tested on: wild pansy (Viola tricolor, VIOTR); details: Viola tricolor, post-emergence, VIOTR, read-out: % visual injury Obs
Experimental: as §1, §2, §5
as §6, with “Compound 1 was formulated as an EC and was combined with florasulam, cloransulam, diclosulam, flumetsulam, penoxsulam, or pyroxsulam.” left out
as §4

[12] = Amaranthus retroflexus, post-emergence, read-out: % visual injury Obs
[13] = Cirsium arvense, post-emergence, read-out: % visual injury Obs
[14] = Bassia scoparia, post-emergence, read-out: % visual injury Obs
[15] = Stellaria media, post-emergence, read-out: % visual injury Obs

`COC(=O)c1ccc(I)cc1S(=O)(=O)[N-]C(=O)Nc1nc(C)nc(OC)n1.[Na+]` gave a pest or weed control at 2.5 g/ha ([1]; Fallopia convolvulus, post-emergence, POLCO, iodosulfuron 2.5 g ai/ha, read-out: % visual injury Obs) of 80%.
With `COC(=O)c1csc(C)c1S(=O)(=O)NC(=O)n1nc(OC)n(C)c1=O` the pest or weed control at 5 g/ha ([2]; Cirsium arvense, post-emergence, 5 g ai/ha, read-out: % visual injury Obs) was 50%, the pest or weed control at 5 g/ha ([3]; Bassia scoparia, post-emergence, 5 g ai/ha, read-out: % visual injury Obs) was 10% and the pest or weed control at 5 g/ha ([4]; Stellaria media, post-emergence, 5 g ai/ha, read-out: % visual injury Obs) was 95%. It also gave a pest or weed control at 5 g/ha ([5]; 5 g ai/ha) of 70%.
`COC(=O)c1sccc1S(=O)(=O)NC(=O)Nc1nc(C)nc(OC)n1` gave a pest or weed control at 15 g/ha ([2]; Cirsium arvense, post-emergence, CIRAR, thifensulfuron 15 g ai/ha, read-out: % visual injury Obs) of 10%, a pest or weed control at 15 g/ha ([6]; ECHCG, thifensulfuron 15 g ai/ha) of 10% and a pest or weed control at 15 g/ha ([7]; Ipomoea hederacea, post-emergence, IPOHE, thifensulfuron 15 g ai/ha, read-out: % visual injury Obs) of 85%. The pest or weed control at 15 g/ha ([5]; CYPES, thifensulfuron 15 g ai/ha) was 0%.
In the case of `COC(=O)c1ccccc1S(=O)(=O)NC(=O)N(C)c1nc(C)nc(OC)n1`, the pest or weed control at […] ([1]; Fallopia convolvulus, post-emergence, POLCO, tribenuron 7.5 g ai/ha, read-out: % visual injury Obs) is reported as 90%, the pest or weed control at […] ([3]; Bassia scoparia, post-emergence, KCHSC, tribenuron 7.5 g ai/ha, read-out: % visual injury Obs) is reported as 70% and the pest or weed control at […] ([7]; Ipomoea hederacea, post-emergence, IPOHE, tribenuron 7.5 g ai/ha, read-out: % visual injury Obs) is reported as 65%. The pest or weed control at […] ([5]; CYPES, tribenuron 7.5 g ai/ha) was 0%.
In the case of `CCOc1nc(F)cc2nc(S(=O)(=O)Nc3c(Cl)cccc3C(=O)OC)nn12` [Cloransulam, cloransulam], the pest or weed control ([1]; Fallopia convolvulus, post-emergence, 4.375 g ai/ha, read-out: % visual injury Obs) is reported as 85%, the pest or weed control [8, 12] is reported as 0% and the pest or weed control [2, 13] is reported as 99%. The pest or weed control [3, 14] was 0%, the pest or weed control [9] was 0% and the pest or weed control [4, 15] was 0%. The pest or weed control [5] was 50% and the pest or weed control [10] was 30%.
Work on `CCOc1nc(F)cc2nc(S(=O)(=O)Nc3c(Cl)cccc3Cl)nn12` [Diclosulam, diclosulam] yielded a pest or weed control [8, 12] of 60%, a pest or weed control [2, 13] of 93% and a pest or weed control [3, 14] of 50%. For the same compound, the pest or weed control [9] was 0%, the pest or weed control ([6]; 4.375 g ai/ha) was 30% and the pest or weed control ([7]; Ipomoea hederacea, post-emergence, 4.375 g ai/ha, read-out: % visual injury Obs) was 93%. For the same compound, the pest or weed control [4, 15] was 0%, the pest or weed control [5] was 50% and the pest or weed control [10] was 60%.
`CCOc1ccccc1OS(=O)(=O)NC(=O)Nc1nc(OC)cc(OC)n1` [Ethoxysulfuron, ethoxysulfuron] gave a pest or weed control at 10 g/ha ([11]; ethoxysulfuron 10 g ai/ha) of 40%, a pest or weed control at 10 g/ha ([8]; Amaranthus retroflexus, post-emergence, AMARE, ethoxysulfuron 10 g ai/ha, read-out: % visual injury Obs) of 20% and a pest or weed control at 10 g/ha ([3]; Bassia scoparia, post-emergence, KCHSC, ethoxysulfuron 10 g ai/ha, read-out: % visual injury Obs) of 0%. The pest or weed control at 10 g/ha ([4]; Stellaria media, post-emergence, STEME, ethoxysulfuron 10 g ai/ha, read-out: % visual injury Obs) was 10%.
For `CCS(=O)(=O)c1nc2ccccn2c1S(=O)(=O)NC(=O)Nc1nc(OC)cc(OC)n1` [Sulfosulfuron, sulfosulfuron], the pest or weed control at 8.75 g/ha ([11]; sulfosulfuron 8.75 g ai/ha) was 80%, the pest or weed control at 8.75 g/ha ([1]; Fallopia convolvulus, post-emergence, POLCO, sulfosulfuron 8.75 g ai/ha, read-out: % visual injury Obs) was 80% and the pest or weed control at 8.75 g/ha ([2]; Cirsium arvense, post-emergence, CIRAR, sulfosulfuron 8.75 g ai/ha, read-out: % visual injury Obs) was 85%. The pest or weed control at 8.75 g/ha ([5]; CYPES, sulfosulfuron 8.75 g ai/ha) was 80%.
For halosulfuron, the “% visual injury Obs” value ([1]; POLCO, halosulfuron 8.75 g ai/ha) was 30%, the “% visual injury Obs” value ([8]; AMARE, halosulfuron 17.5 g ai/ha) was 30% and the “% visual injury Obs” value ([2]; CIRAR, halosulfuron 8.75 g ai/ha) was 10%. The “% visual injury Obs” value ([3]; KCHSC, halosulfuron 17.5 g ai/ha) was 0%, the “% visual injury Obs” value ([7]; IPOHE, halosulfuron 17.5 g ai/ha) was 20% and the “% visual injury Obs” value ([4]; STEME, halosulfuron 17.5 g ai/ha) was 50%.
